We go through 25 molecules from patent publication US7179823B1, “5-membered n-heterocyclic compounds with hypoglycemic and hypolipidemic activity” (Takeda Pharmaceutical Company Limited, priority 1999, dated 2007).

The term melting point denotes the temperature of the solid-liquid transition.

`O=C(O)CCc1cn(Cc2ccc(OCc3ccc(-c4ccccc4)nc3)cc2)nc1-c1ccccc1` [Example 288, 3-[3-phenyl-1-[4-(6-phenyl-3-pyridylmethoxy)benzyl]-1H-pyrazol-4-yl]propionic acid]: the melting point lay within 155 to 156 °C. `Cc1oc(-c2ccco2)nc1COc1ccc(Cn2cc(CCC(=O)O)c(-c3ccc(F)cc3)n2)cc1` [Example 105, 3-[3-(4-fluorophenyl)-1-[4-[2-(2-furyl)-5-methyl-4-oxazolylmethoxy)benzyl]-1H-pyrazol-4-yl]propionic acid] yielded a melting point of 125 to 126 °C. As to `O=C(O)c1cn(Cc2cccc(Oc3ccccc3)c2)nc1-c1ccccc1` [Example 50, 1-(3-phenoxybenzyl)-3-phenyl-1H-pyrazole-4-carboxylic acid], the melting point lay in the range of 148 to 149 °C. The figure for `Cc1oc(-c2ccco2)nc1COc1ccc(Cn2cc(CC(=O)O)c(-c3ccccc3)n2)cn1` [Example 316, [1-[6-[2-(2-furyl)-5-methyl-4-oxazolylmethoxy]-3-pyridylmethyl]-3-phenyl-1H-pyrazol-4-yl]acetic acid] is 135 to 136 °C; for `Cc1oc(-c2ccco2)nc1COc1ccc(Cn2cc(CCC(=O)O)c(-c3ccc(C(F)(F)F)cc3)n2)cc1` [Example 103, 3-[1-[4-[2-(2-furyl)-5-methyl-4-oxazolylmethoxy)benzyl]-3-(4-trifluoromethylphenyl)-1H-pyrazol-4-yl]propionic acid] it is 92 to 93 °C; for `CCOc1nn(Cc2ccc(OCc3nc4ccccc4n3C)cc2)cc1CCC(=O)O` [Example 248, 3-[3-ethoxy-1-[4-(1-methyl-1H-benzimidazol-2-ylmethoxy)benzyl]-1H-pyrazol-4-yl]propionic acid] it is 177 to 178 °C. The figure for `CCOc1nn(Cc2ccc(OCCn3ncc4ccccc4c3=O)cc2)cc1CCC(=O)O` [Example 220, 3-[3-ethoxy-1-[4-[2-[1-oxophthalazin-2(1H)-yl]ethoxy]benzyl]-1H-pyrazol-4-yl]propionic acid] is 152 to 153 °C. In turn, `CCOc1nn(Cc2ccc(OCc3ccc(-c4ccccc4)nc3)cc2)cc1CCC(=O)O` [Example 230, 3-[3-ethoxy-1-[4-(6-phenyl-3-pyridylmethoxy)benzyl]-1H-pyrazol-4-yl]propionic acid] showed a melting point of 140 to 141 °C. Molecule `CCOC(=O)/C=C/c1cn(Cc2ccc(Oc3ccccc3)cc2)nc1OCc1nc(-c2ccccc2)oc1C` [Example 332, ethyl(E)-3-[3-(5-methyl-2-phenyl-4-oxazolylmethoxy)-1-(4-phenoxybenzyl)-1H-pyrazol-4-yl]propenoate] showed a melting point of 93 to 94 °C. The figure for `Cc1oc(-c2ccccc2)nc1COc1ccc(Cn2cc(C(=O)O)c(-c3ccccc3)n2)cc1` [Example 93, 1-[4-(5-methyl-2 phenyl-4-oxazolylmethoxy)benzyl]-3-phenyl-1H-pyrazol-4-carboxylic acid] is 165 to 166 °C; for `O=C(O)CCc1cn(Cc2ccc(OCc3ccc4ccccc4n3)cc2)nc1-c1ccc(F)cc1` [Example 294, 3-[3-(4-fluorophenyl)-1-[4-(2-quinolylmethoxy)benzyl]-1H-pyrazol-4-yl]propionic acid] it is 178 to 179 °C; for `O=C(O)CCc1cn(Cc2ccc(OCc3ccc4ccccc4n3)nc2)nc1-c1ccccc1` [Example 298, 3-[3-phenyl-1-(6-(2-quinolylmethoxy)-3-pyridylmethyl]-1H-pyrazol-4-yl]propionic acid] it is 166 to 167 °C. On to `CCOC(=O)/C=C/c1cn(Cc2ccc3cc(OCc4ccccc4)ccc3c2)cc1-c1ccccc1` [Example 52, ethyl(E)-3-[1-(6-benzyloxy-2-naphthylmethyl)-4-phenyl-3-pyrrolyl]propenoate], for which the melting point was in the range of 119 to 120 °C. As to `O=C(O)c1cn(Cc2ccc(OCc3csc(-c4ccccc4)n3)cc2)nc1-c1ccccc1` [Example 94, 3-phenyl-1-[4-(2-phenyl-4-thiazolylmethoxy)benzyl]-1H-pyrazol-4-carboxylic acid], the melting point fell in the range of 119 to 120 °C. Next, `O=C(O)CCc1cn(Cc2ccc(OCc3ccccc3)cc2)cc1-c1ccccc1` [Example 10, 3-[1-(4-benzyloxybenzyl)-4-phenyl-3-pyrrolyl]propionic acid]: 130 to 131 °C; `CCOC(=O)/C=C/c1cn(Cc2ccc(OCc3ccccc3)cc2)nc1-c1ccccc1` [Example 284, ethyl (E)-3-[1-(4-benzyloxybenzyl)-3-phenyl-1H-pyrazol-4-yl]propenoate]: 94 to 95 °C. The figure for `Cc1oc(-c2ccccc2)nc1COc1ccc(Cn2cc(CCCCC(=O)O)c(-c3ccccc3)n2)cc1` [Example 97, 5-[1-[4-(5-methyl-2-phenyl-4-oxazolylmethoxy)benzyl]-3-phenyl-1H-pyrazol-4-yl]pentanoic acid] is 109 to 110 °C; for `O=C(O)Cc1cn(Cc2ccc(OCc3ccccc3)cc2)nc1-c1ccc(F)cc1` [Example 317, [1-(4-benzyloxybenzyl)-3-(4-fluorophenyl)-1H-pyrazol-4-yl]acetic acid] it is 194 to 195 °C. `Cc1oc(-c2ccccc2)nc1COc1ccc(Cn2cc(CCC(=O)O)c(-c3ccc(C(F)(F)F)cc3)n2)cc1` [Example 98, 3-[1-[4-(5-methyl-2-phenyl-4-oxazolylmethoxy)benzyl]-3-(4-trifluoromethylphenyl)-1H-pyrazol-4-yl]propionic acid] displayed a melting point of 149 to 150 °C.

Molecule `O=C(O)CCc1cn(Cc2cc(OCc3csc(-c4ccccc4)n3)cc(OCc3csc(-c4ccccc4)n3)c2)cc1-c1ccccc1` [Example 266, 3-[1-[3,5-bis(2-phenyl-4-thiazolylmethoxy)benzyl]-4-phenyl-3-pyrrolyl]propionic acid] displayed a melting point of 78 to 79 °C. The figure for `CCOc1cc(Cn2cc(CCC(=O)O)c(-c3ccccc3)c2)cc(OCc2csc(-c3cccs3)n2)c1` [Example 276, 3-[1-[3-ethoxy-5-[2-(2-thienyl)-4-thiazolylmethoxy)benzyl]-4-phenyl-3-pyrrolyl]propionic acid] is 104 to 105 °C; for `CCOC(=O)CCc1cn(Cc2ccc(OC)c(OCc3nc(-c4ccccc4)oc3C)c2)nc1OCC` [Example 214, ethyl 3-[3-ethoxy-1-[4-methoxy-3-(5-methyl-2-phenyl-4-oxazolylmethoxy)benzyl]-1H-pyrazol-4-yl]propionate] it is 109 to 110 °C; for `COc1ccc(-c2nn(Cc3ccc(OCc4nc(-c5ccccc5)oc4C)cc3)cc2CCC(=O)O)cc1` [Example 102, 3-[3-(4-methoxyphenyl)-1-[4-(5-methyl-2-phenyl-4-oxazolylmethoxy)benzyl]-1H-pyrazol-4-yl]propionic acid] it is 137 to 138 °C. The figure for `O=C(O)CCc1cn(Cc2ccc(OCc3ccccc3)cc2)nc1-c1ccccc1` [Example 77, 3-[1-(4-benzyloxybenzyl)-3-phenyl-1H-pyrazol-4-yl]propionic acid] is 147 to 148 °C; for `O=C(O)CCc1cn(Cc2ccc(OCCn3ncc4ccccc4c3=O)cc2)nc1-c1ccccc1` [Example 286, 3-[1-[4-[2-[1-oxophthalazin-2(1H)-yl]ethoxy]benzyl]-3-phenyl-1H-pyrazol-4-yl]propionic acid] it is 155 to 156 °C.
